Inhibition and IC50 data for 42 molecules are collected here from PubChem BioAssay AID850 (SRMLSC, 2007).

Each structure is given as a SMILES string. The source made the active and inactive calls. The rule behind the calls is not given here.

The nature of assay [1]: concentration-response yeast growth inhibition under permissive conditions, counter-assay for yeast lifespan-shortening chemical project (AID 850).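 Note: growth read as optical density after one day of incubation.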 The conditions noted are these: Saccharomyces cerevisiae growth inhibition, permissive control, measured here: maximum growth inhibition, stronger effect = higher value.
In assay [2] the test system is Saccharomyces cerevisiae growth inhibition, permissive control. Described as above.

On to `C=CCNC1=C(Cl)C(=O)c2ccccc2C1=O`, for which the inhibition (usually the relative decrease from the control value, in per cent) in assay [1] (at 25 µM) stood at 18.3%. For the same molecule, in assay [2], the IC50 (as a rule, the concentration needed to halve the response being measured) is > 100 µM (inactive).

Take `CCCn1c(Nc2nc3ccccc3n2C)nc2ccccc21`: the inhibition in assay [1] (at 50 µM) was determined as 97.9%. For the same molecule, the IC50 in assay [2] is 45.1 µM.

Take `CC1Cc2ccccc2N1C(=O)CSC1=NCCS1` (centres undefined): the inhibition in assay [1] (at 0.781 µM) was determined as 16.7%. The IC50 in assay [2] is > 100 µM (inactive).

`CCc1ccc2c(c1)C1(NN=C(c3ccccc3)S1)C(=O)N2` (centres undefined): in assay [1] (at 50 µM), the inhibition is 97.5%. Besides, the IC50 in assay [2] is 27.5 µM.

Turning to `COc1ccc(CCNC(=O)c2cnn3c(C(F)F)cc(C)nc23)cc1OC`, the inhibition in assay [1] (at 3.125 µM) was -1.3%. Also, in assay [2], the IC50 is > 100 µM (inactive).

As to `Cc1cccc(/C(N)=N/OC(=O)c2ccc(F)cc2)c1`, in assay [1] (at 50 µM), the inhibition was found to be 23.4%. For the same molecule, in assay [2], the IC50 is > 100 µM (inactive).

As to `Cc1cccc(OCCn2cc(/C=N/NC(=O)c3ccncc3)c3ccccc32)c1`, the inhibition in assay [1] (at 0.781 µM) came to 10%. In assay [2], the IC50 was > 100 µM (inactive).

For the molecule `NNC(=O)c1ccc(COc2cccc3ccccc23)cc1`, the inhibition in assay [1] (at 50 µM) stood at 94.7%. In assay [2], the IC50 is 20 µM.

As to `Cn1c(C(C#N)C(=O)c2ccco2)nc2ccccc21` (centres undefined), in assay [1] (at 50 µM), the inhibition worked out at 17.5%. Also, the IC50 in assay [2] is > 100 µM (inactive).

Regarding `COc1ccc(S(=O)(=O)n2oc(=O)cc2-c2ccccc2)cc1OC`, the inhibition in assay [1] (at 1.563 µM) was found to be 9.27%. Moreover, the IC50 in assay [2] is > 100 µM (inactive).

As to `O=C1Cc2ccccc2C(=O)N1CCc1ccccc1`, the inhibition in assay [1] (at 0.781 µM) amounted to 20.7%. Besides, the IC50 in assay [2] was > 100 µM (inactive).

Take `O=C(OCn1ncc(Br)c(Br)c1=O)c1ccc(F)cc1`: the inhibition in assay [1] (at 12.5 µM) came out at 78.7%. Besides, the IC50 in assay [2] is 7.71 µM.

As for `CCOC(=O)c1ccc(-n2[nH]c(-c3ccccc3)cc2=O)cc1`, in assay [1] (at 12.5 µM), the inhibition stood at 47.7%. For the same molecule, the concentration for half-maximal inhibition (IC50) in assay [2] was 47.7 µM.

Turning to `CCOC(=O)C(=NC(C)CC)NNc1ccc(Br)cc1` (centres undefined), the inhibition in assay [1] (at 50 µM) was 97.4%. Moreover, the half-inhibitory concentration (IC50) in assay [2] is 4.03 µM.

Take `CC(Nc1ccc(Br)cn1)c1cc(Cl)ccc1O` (centres undefined): the inhibition in assay [1] (at 0.781 µM) worked out at 12.8%. In addition, in assay [2], the IC50 was > 100 µM (inactive).

As to `CCCc1cc(C(=O)Cc2ccc(F)cc2)c(O)cc1O`, in assay [1] (at 50 µM), the inhibition is 80.4%. Further, in assay [2], the half-inhibitory concentration (IC50) is 26.9 µM.

In the case of `Cc1nc(Cl)c2oc3ccccc3c2n1`, the inhibition in assay [1] (at 50 µM) was determined as 15.8%. Moreover, the IC50 in assay [2] was > 100 µM (inactive).

In the case of `CC(NC(=O)Nc1ccc(Cl)cc1)C(c1cccs1)N1CCOCC1` (centres undefined), the inhibition in assay [1] (at 0.781 µM) was 8.7%. Besides, the IC50 in assay [2] was > 100 µM (inactive).

Take `O=C(O)CCC(=O)N1CCN(c2nc(-c3ccccc3Cl)c3cc(Br)ccc3n2)CC1`: the inhibition in assay [1] (at 50 µM) stood at 98.3%. Also, in assay [2], the IC50 is 32 µM.

In the case of `CCN1/C(=C/c2ccc3cccc(C)c3[n+]2CC)Sc2ccccc21`, the inhibition in assay [1] (at 50 µM) came out at 99.4%. The IC50 in assay [2] is 8.03 µM.

As for `O=C(ONC1=NCCCCC1)c1ccc(Cl)cc1`, in assay [1] (at 50 µM), the inhibition was 99.8%. Besides, the IC50 in assay [2] is 7.02 µM.

With `CCCCCCc1ccc(-c2ncc(N)cn2)cc1`, in assay [1] (at 50 µM), the inhibition stood at 99.2%. Besides, the IC50 in assay [2] was 22.9 µM.

As for `C(=C\c1nc(N2CCCCCC2)c2ccccc2n1)/c1ccccc1`, in assay [1] (at 50 µM), the inhibition was 78.2%. For the same molecule, in assay [2], the 50% inhibitory concentration (IC50) is 39.2 µM.

On to `Cc1ccc(C)c(/C=C/C(=O)c2ccccc(=O)c2O)c1`, for which the inhibition in assay [1] (at 25 µM) worked out at 100%. Also, in assay [2], the IC50 is 6.38 µM.

Turning to `CCC(C)N1CC23C=CC(O2)C(C(=O)OC)C3C1=O` (centres undefined), the inhibition in assay [1] (at 0.098 µM) turned out to be 10.6%. In assay [2], the IC50 is > 100 µM (inactive).

Consider `Cc1ccc(-n2cnc3cc(NCc4cccs4)ccc32)cc1`, for which the inhibition in assay [1] (at 50 µM) amounted to 53.2%. Also, the IC50 in assay [2] was 45.8 µM.

Take `O=C(CC(O)(C(F)(F)F)C(F)(F)F)Nc1ccc(Cl)c(Cl)c1`: the inhibition in assay [1] (at 50 µM) stood at 92.8%. In addition, the IC50 in assay [2] is 19.2 µM.

As to `CCCc1cc(-c2n[nH]c(=S)n2C(C)c2ccccc2)cs1` (centres undefined), in assay [1] (at 0.391 µM), the inhibition came out at 1.3%. For the same molecule, the IC50 in assay [2] is > 100 µM (inactive).

As to `CCCCCCCCCCCCCCCC[n+]1cccc2ccccc21`, the inhibition in assay [1] (at 50 µM) was found to be 100%. For the same molecule, the IC50 in assay [2] is 0.701 µM.

Regarding `CCC(=O)NC(c1ccc(C)cc1)c1cc([N+](=O)[O-])c2cccnc2c1O` (centres undefined), the inhibition in assay [1] (at 50 µM) came to 60.6%. Moreover, the IC50 in assay [2] was 43.5 µM.

`O=c1cc(C(F)(F)F)[nH]c2c(C(F)(F)F)cccc12`: in assay [1] (at 50 µM), the inhibition was determined as 97.5%. The IC50 in assay [2] was 11.2 µM.

On to `O/N=C/c1ccc(OCc2ccccc2)c(Br)c1`, for which the inhibition in assay [1] (at 0.781 µM) came to 11.2%. Moreover, the IC50 in assay [2] was > 100 µM (inactive).

Regarding `NNC(=O)c1ccc(COc2ccc3c(c2)CCC3)o1`, in assay [1] (at 50 µM), the inhibition amounted to 95.3%. In addition, the IC50 in assay [2] is 15.5 µM.

For `O=c1cc(-c2ccncc2)oc2ccccc12`, the inhibition in assay [1] (at 3.125 µM) turned out to be 20.9%. Besides, the IC50 in assay [2] was > 100 µM (inactive).

In the case of `Cc1cccc(OCCCCc2c(C)n[nH]c2C)c1C`, the inhibition in assay [1] (at 50 µM) came out at 76.5%. Moreover, the IC50 in assay [2] was 32 µM.

`COc1ccc(C(=O)/C=C/Nc2ccc(C)cn2)cc1OC`: the inhibition in assay [1] (at 1.563 µM) came out at 14.8%. The IC50 in assay [2] was > 100 µM (inactive).

`O=C1c2ccccc2C(=O)c2c1cccc2N1CCOCC1`: the inhibition in assay [1] (at 0.195 µM) amounted to 13.5%. In addition, the IC50 in assay [2] is > 100 µM (inactive).

Turning to `O=C(O)c1ccc2nc(-c3ccccc3)sc2c1`, the inhibition in assay [1] (at 0.781 µM) came to 28.2%. Further, the IC50 in assay [2] was > 100 µM (inactive).

As for `Cc1ccc2c(c1)-c1nc3ccccc3cc1C2=NC1CCCCC1`, the inhibition in assay [1] (at 50 µM) was 16.8%. Moreover, the IC50 in assay [2] was > 100 µM (inactive).

On to `Clc1ccc2[nH]c3c(c2c1)CCc1cn[nH]c1-3`, for which the inhibition in assay [1] (at 25 µM) was 93.8%. The IC50 in assay [2] was 5.72 µM.

Consider `CCn1c2ccccc2c2cc(Nc3cc(C)nc4ncnn34)ccc21`, for which the inhibition in assay [1] (at 6.25 µM) came out at 14.4%. Moreover, the IC50 in assay [2] was > 100 µM (inactive).

As for `N#CSCC(=O)c1cccc2ccccc12`, the inhibition in assay [1] (at 12.5 µM) was 26.9%. Also, in assay [2], the IC50 was > 100 µM (inactive).
